Test results reported in patent US20240108740A1, “THERAPEUTIC COMPOSITIONS INCLUDING SPN10 AND USES THEREOF” (Stealth BioTherapeutics Inc., priority 2022, published 2024).
Residues, ends and D or L forms follow the SMILES beside them.

What was measured:
high-fat fed rats = test: Example 33: ROS production and redox state in rats fed a high-fat diet; type: in vivo, rat
Protocol: Ten rats maintained on a high-fat diet will receive daily intraperitoneal injections of peptide conjugates (1.5 mg/kg); aromatic-cationic peptides (an equivalent molar dose of aromatic-cationic peptide based on the concentration of the aromatic-cationic peptide administered in the peptide conjugate treatment group); SPN10(s) (an equivalent molar dose of SPN10 based on the concentration of SPN10 administered in the peptide conjugate treatment group); or SPN10(s) in combination with aromatic-cationic peptides (e.g., an equivalent molar dose of SPN10 based on the concentration of SPN10 administered in the peptide conjugate treatment group and an equivalent molar dose of aromatic-cationic peptide based on the concentration of aromatic-cationic peptide administered in the peptide conjugate treatment group) dissolved in phosphate-buffered saline. Dose response curves for peptide conjugates, aromatic-cationic peptides and SPN10(s) with or without aromatic-cationic peptides will be established in vitro and in vivo. Mitochondrial function will be measured according to the methods described herein.
Next, rats will be placed on a high-fat diet (60%) for six weeks with daily administration of vehicle, peptide conjugates, aromatic-cationic peptides, or SPN10(s) with or without aromatic-cationic peptides.
Protein homogenates will be prepared by homogenizing 100 mg of frozen muscle in a buffer containing 10 mM Tris, 1 mM EDTA, 1 mM EGTA, 2 mM NaOrthovanadate, 2 mM NaPyrophosphate, 5 mM NaF, and protease inhibitor cocktail (Complete), at pH 7.2. After homogenization, 1% Triton X-100 will be added to the protein suspension, which will be vortexed and incubated on ice for 5 minutes. Samples will be centrifuged at 10,000 rpm for 10 minutes to pellet the insoluble debris. For GSSG measurement, tissue will be homogenized in a solution containing 20 mM Methyl-2-vinylpyridinium triflate to scavenge all reduced thiols in the sample. Total GSH and GSSG will be measured using a commercially available GSH/GSSG assay (Oxis Research Products, Percipio Biosciences, Foster City, CA, U.S.A).
To establish a link between the increased mitochondrial H2O2 production brought about by high-fat diet and its effect on overall redox environment of skeletal muscle, both GSH and GSSG will be measured in skeletal muscle from standard chow-fed and high-fat fed rats 1) following a 10 hour fast, and 2) 1 hour after administration of a standard glucose load (oral gavage, 10 hour fasted).

Sprague-Dawley rats = test: Example 41: contrast-induced nephropathy in glycerol-induced rhabdomyolysis; type: in vivo, rat; settings: 25% glycerin + diatrizoate
Protocol: Animal model: This Example will utilize animals subjected to glycerol-induced rhabdomyolysis, as previously described. Parvez, et al., Invest. Radiol., 24:698-702 (1989); Duan, et al., Acta Radiologica, 41:503-507(2000). Sprague-Dawley rats with body weight of 300-400 g will be dehydrated for 24 hours followed by intramuscular (i.m.) injection of 25% glycerol solution (v/v) at the dose of 10 mL/kg. Twenty-four hours later, the animals will be administered a contrast dye with peptide conjugates, aromatic-cationic peptides, SPN10(s) with or without aromatic-cationic peptides, or control vehicle according to the following: 1) 25% glycerin+Saline+PBS (n=6), 2) 25% glycerin+diatrizoate+PBS (n=7), 3) 25% glycerin+diatrizoate+peptide conjugates (n=7), 4) 25% glycerin+diatrizoate+aromatic-cationic peptides (n=7), 5) 25% glycerin+diatrizoate+SPN10(s), and 6) 25% glycerin+diatrizoate+SPN10(s)+aromatic-cationic peptides. […] Samples will be analyzed by students t-test and differences will be considered significant at p<0.05.
Renal function: Renal function will be assessed by determining serum and urinary creatinine at baseline, 24 hours after dehydration, and 48 hours following contrast dye administration. Creatinine clearance will be calculated based on serum and urinary creatinine levels and urinary volume. Urinary albumin concentration will be determined using a competition ELISA assay.

normal, mobile mice = test: Skeletal muscle size and mitochondrial function in normal, mobile mice; type: in vivo, mouse
From the text: 1. Normal, mobile mice: Normal, mobile mice will be randomly divided into […], A-E, with 8 mice per group. Group A mice will receive an injection of saline vehicle; Group B mice will receive an i.p. injection of the peptide conjugate; Group C mice will receive an i.p. injection of aromatic-cationic peptide; Group D mice will receive an i.p. injection of SPN10; Group E mice will receive an i.p. injection of SPN10+aromatic-cationic peptide.
Preparation of permeabilized muscle fibers. Permeabilized muscle fibers will be prepared as previously described. Korshunov, et al., FEBS Lett 416:15-18, 1997; Tonkonogi, et al., Pfliigers Arch 446:261-269, 2003. Briefly, the muscle will be trimmed of connective tissue and cut down to fiber bundles (4-8 mg wet wt). […]
Mitochondrial respiration in permeabilized fibers. Respiration will be measured polarographically in a respiration chamber maintained at 37° C. […] Flux through complex I will be measured using 5 mM pyruvate and 2 mM malate. […] Basal respiration (state 4) will be determined in the presence of 10 µg/mL oligomycin to inhibit ATP synthesis. The respiratory control ratio (RCR) will be calculated by dividing state 3 by state 4 respiration.

N=C(N)NCCC[C@H](NC(=O)[C@@H](N)Cc1c[nH]c2ccccc12)C(=O)N[C@@H](Cc1c[nH]c2ccccc12)C(=O)N[C@@H](CCCCN)C(N)=O [SPN10, H-L-Trp-L-Arg-L-Trp-L-Lys-NH2] (H-WRWK-NH2)
GSH/GSSG ratio in skeletal muscle (high-fat fed rats; even following glucose ingestion): preserve the GSH/GSSG ratio near control levels | mitochondrial H2O2 production during succinate and palmitoyl-carnitine supported respiration (high-fat fed rats; high-fat diet (60%) six weeks, daily administration): reduction in mitochondrial H2O2 production | mitochondrial H2O2 production during succinate-supported respiration (dose response curves) (high-fat fed rats; in vitro and in vivo): reduction in mitochondrial H2O2 production | reduction in total cellular glutathione content (GSHt) by high-fat feeding (high-fat fed rats; skeletal muscle): irrespective of treatment | albuminuria after contrast dye (Sprague-Dawley rats): attenuate or prevent albuminuria | creatinine clearance after contrast dye (Sprague-Dawley rats): attenuate or prevent reduced creatinine clearance | loss of proximal tubule brush border, glomerular swelling and tubular protein cast deposition (PAS) (Sprague-Dawley rats): attenuate or prevent these effects | normal soleus muscle weight, RCR, mitochondrial state 3 and state 4 respiration (normal, mobile mice; mobile mice): no effect | normal skeletal muscle size or mitochondrial function (normal, mobile mice; mouse, in vivo): no effect
